# According to US20220169639A1 (priority 2018, published 2022):
# Tested on: HBeAg (surrogate marker for cccDNA) in HepDES19 cells
# Assay: Engineered HepDES19 primary screen assay (HBeAg ELISA)
# Assay type: cell-based, HBV
# Details: Hepatitis B virus, 120 h, HBeAg in culture supernatant, 5 days incubation, read-out: IC50 (HepDES19 primary screen assay, inhibition of extracellular HBeAg level)
# In short: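 HepDES19 cells pre-induced by Tet withdrawal for 8 days, frozen, then seeded and dosed after 24 h with half-log compound dilutions (1% DMSO final). After 5 days at 37 °C, HBeAg measured by ELISA and viability by CCK-8; IC50 from 4-parameter logistic fit.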
row,SMILES,IC50 [nM]
1,COc1cc(OCCNC(=O)C(=O)O)c(-c2cc(=O)c3cccc(Cl)c3o2)cc1Br [Example 122],7720
2,O=C(O)CNCCOc1cc(C(F)(F)F)ccc1-c1cc(=O)c2cccc(Cl)c2o1 [Example 123],5110
3,O=C(O)CCNCCOc1cc(C(F)(F)F)ccc1-c1cc(=O)c2cccc(Cl)c2o1 [Example 124],5880
4,O=C(O)C(=O)N1CC(Oc2cc(C(F)(F)F)ccc2-c2cc(=O)c3cccc(Cl)c3o2)C1 [Example 127],80
5,O=C(O)c1cccc(CN2CCC(Oc3cc(Br)ccc3-c3cc(=O)c4cccc(Cl)c4o3)CC2)c1 [Example 128],270
6,O=C(O)C(=O)N1CCC(Oc2cc(C(F)(F)F)ccc2-c2cc(=O)c3cccc(Cl)c3o2)CC1 [Example 129],4750
7,O=C(O)C(=O)N1CC[C@@H](Oc2cc(C(F)(F)F)ccc2-c2cc(=O)c3cccc(Cl)c3o2)C1 [Example 130],4820
8,Cc1ccc(-c2cc(=O)c3cccc(Cl)c3o2)c(O[C@H]2CCN(C(=O)C(=O)O)C2)c1 [Example 132],350
9,"CN(CCCOc1cc(C(F)(F)F)ccc1-c1cc(=O)c2cccc(Cl)c2o1)CC(=O)O [Example 134, 2-[3-[2-(8-chloro-4-oxo-chromen-2-yl)-5-(trifluoromethyl)phenoxy]propyl-methyl-amino]acetic acid]",8170
10,"Cc1ccc(-c2cc(=O)c3cccc(Cl)c3o2)c(OCCN(C(=O)C(=O)O)C2CC2)c1 [Example 135, 2-[2-[2-(8-chloro-4-oxo-chromen-2-yl)-5-methyl-phenoxy]ethyl-cyclopropyl-amino]-2-oxo-acetic acid]",210
11,"CCNS(=O)(=O)N(C)CCOc1cc(C)ccc1-c1cc(=O)c2cccc(Cl)c2o1 [Example 136, 8-chloro-2-[2-[2-[ethylsulfamoyl(methyl)amino]ethoxy]-4-methyl-phenyl]-4-oxo-chromene]",580
12,"CCOC(=O)C(=O)N(C)CCOc1cc(C)ccc1-c1cc(=O)c2cccc(Cl)c2o1 [Example 137, ethyl 2-[2-[2-(8-chloro-4-oxo-chromen-2-yl)-5-methyl-phenoxy]ethyl-methyl-amino]-2-oxo-acetate]",3400
13,"CCOC(=O)C(=O)N(CCCOc1cc(C(F)(F)F)ccc1-c1cc(=O)c2cccc(Cl)c2o1)S(=O)(=O)CC [Example 138, ethyl 2-[3-[2-(8-chloro-4-oxo-chromen-2-yl)-5-(trifluoromethyl)phenoxy]propyl-ethylsulfonyl-amino]-2-oxo-acetate]",4560
14,"O=C(O)C1CC(N(CCCOc2cc(C(F)(F)F)ccc2-c2cc(=O)c3cccc(Cl)c3o2)S(=O)(=O)C2CC2)C1 (stereo not drawn) [Example 139, 3-[3-[2-(8-chloro-4-oxo-chromen-2-yl)-5-(trifluoromethyl)phenoxy]propyl-cyclopropylsulfonyl-amino]cyclobutanecarboxylic acid]",10200
15,O=C(O)CN(CCCOc1cc(C(F)(F)F)ccc1-c1cc(=O)c2cccc(Cl)c2o1)CC(=O)O [Example 140],190
16,O=c1cc(-c2ccc(C(F)(F)F)cc2OCCCN([C@H]2C[C@@H](C(=O)O)C2)S(=O)(=O)c2ccccc2)oc2c(Cl)cccc12 [Example 141],350
17,O=c1cc(-c2ccc(C(F)(F)F)cc2OCCCN([C@H]2C[C@H](C(=O)O)C2)S(=O)(=O)c2ccccc2)oc2c(Cl)cccc12 [Example 142],740
18,O=C(O)CN(CCCOc1cc(C(F)(F)F)ccc1-c1cc(=O)c2cccc(Cl)c2o1)S(=O)(=O)c1ccccc1 [Example 143],2420
19,CC(=O)N(CCCOc1cc(C(F)(F)F)ccc1-c1cc(=O)c2cccc(Cl)c2o1)CC(=O)O [Example 144],11400
20,O=C(O)CN(CCCOc1cc(C(F)(F)F)ccc1-c1cc(=O)c2cccc(Cl)c2o1)S(=O)(=O)C1CC1 [Example 145],14300

row,SMILES,IC50 [nM]
1,"COc1ccc(-c2cc(=O)c3cccc(Cl)c3o2)c(OCCNC(=O)C(N)=O)c1 [Example 147, N′-[2-[2-(8-chloro-4-oxo-chromen-2-yl)-5-methoxy-phenoxy]ethyl]oxamide]",1200
2,"O=C(NCCOc1cc(C(F)(F)F)ccc1-c1cc(=O)c2cccc(Cl)c2o1)C(=O)NC1CC1 [Example 148, N-[2-[2-(8-chloro-4-oxo-chromen-2-yl)-5-(trifluoromethyl)phenoxy]ethyl]-N′-cyclopropyl-oxamide]",1210
3,"O=C(NCCCOc1cc(C(F)(F)F)ccc1-c1cc(=O)c2cccc(Cl)c2o1)C(=O)NS(=O)(=O)C1CC1 [Example 149, N-[3-[2-(8-chloro-4-oxo-chromen-2-yl)-5-(trifluoromethyl)phenoxy]propyl]-N′-cyclopropylsulfonyl-oxamide]",8790
4,"Cc1ccc(-c2cc(=O)c3cccc(Cl)c3o2)c(OCCNC(=O)C(=O)N2CC[C@H](O)C2)c1 [Example 150, N-[2-[2-(8-chloro-4-oxo-chromen-2-yl)-5-methyl-phenoxy]ethyl]-2-[(3S)-3-hydroxypyrrolidin-1-yl]-2-oxo-acetamide]",12200
5,"Cc1ccc(-c2cc(=O)c3cccc(Cl)c3o2)c(OCCNC(=O)N[C@@H](C)C(=O)O)c1 [Example 151, (2S)-2-[2-[2-(8-chloro-4-oxo-chromen-2-yl)-5-methyl-phenoxy]ethylcarbamoylamino]propanoic acid]",630
6,Cc1ccc(-c2cc(=O)c3cccc(Cl)c3o2)c(OCCN2C(=O)N[C@@H](C(C)C)C2=O)c1 [Example 152],480
7,CC(C)[C@@H]1NC(=O)N(CCOc2cc(C(F)(F)F)ccc2-c2cc(=O)c3cccc(Cl)c3o2)C1=O [Example 153],830
8,Cc1ccc(-c2cc(=O)c3cccc(Cl)c3o2)c(OCCNC(=O)NCC(=O)O)c1 [Example 154],1430
9,C[C@@H]1NC(=O)N(CCOc2cc(C(F)(F)F)ccc2-c2cc(=O)c3cccc(Cl)c3o2)C1=O [Example 155],5110
10,"Cc1ccc(S(=O)(=O)NC(=O)NCCCOc2cc(C)ccc2-c2cc(=O)c3cccc(Cl)c3o2)cc1 [Example 156, 1-[3-[2-(8-chloro-4-oxo-chromen-2-yl)-5-methyl-phenoxy]propyl]-3-(p-tolylsulfonyl)urea]",4140
11,"Cc1ccc(S(=O)(=O)NC(=O)NCCOc2cc(C(F)(F)F)ccc2-c2cc(=O)c3cccc(Cl)c3o2)cc1 [Example 158, 1-[2-[2-(8-chloro-4-oxo-chromen-2-yl)-5-(trifluoromethyl)phenoxy]ethyl]-3-(p-tolylsulfonyl)urea]",8350
12,"NS(=O)(=O)NCCOc1cc(C(F)(F)F)ccc1-c1cc(=O)c2cccc(Cl)c2o1 [Example 159, 8-chloro-4-oxo-2-[2-[2-(sulfamoylamino)ethoxy]-4-(trifluoromethyl)phenyl]chromene]",830
13,"Cc1ccc(-c2cc(=O)c3cccc(Cl)c3o2)c(OCCNS(N)(=O)=O)c1 [Example 161, 8-chloro-2-[4-methyl-2-[2-(sulfamoylamino)ethoxy]phenyl]-4-oxo-chromene]",4740
14,"O=C(O)C(=O)N1CCN(CCOc2cc(C(F)(F)F)ccc2-c2cc(=O)c3cccc(Cl)c3o2)C1=O [Example 162, 2-[3-[2-[2-(8-chloro-4-oxo-chromen-2-yl)-5-(trifluoromethyl)phenoxy]ethyl]-2-oxo-imidazolidin-1-yl]-2-oxo-acetic acid]",80
15,"O=C(O)[C@H]1CCN(CC(O)COc2cc(C(F)(F)F)ccc2-c2cc(=O)c3cccc(Cl)c3o2)C1 (stereo partly drawn) [Example 163, (3S)-1-[3-[2-(8-chloro-4-oxo-chromen-2-yl)-5-(trifluoromethyl)phenoxy]-2-hydroxy-propyl]pyrrolidine-3-carboxylic acid]",2760
16,"CC(NCCOc1cc(C(F)(F)F)ccc1-c1cc(=O)c2cccc(Cl)c2o1)C(N)=O (stereo not drawn) [Example 168, 2-[2-[2-(8-chloro-4-oxo-chromen-2-yl)-5-(trifluoromethyl)phenoxy]ethylamino]propanamide]",1140
17,"O=C(O)C1CC(=O)N(CCCOc2cc(Br)ccc2-c2cc(=O)c3cccc(Cl)c3o2)C1 (stereo not drawn) [Example 169, 1-[3-[5-bromo-2-(8-chloro-4-oxo-chromen-2-yl)phenoxy]propyl]-5-oxo-pyrrolidine-3-carboxylic acid]",990
18,"O=c1cc(-c2ccccc2O)oc2cc(O)ccc12 [Example F-1, 7-hydroxy-2-(2-hydroxyphenyl)chromen-4-one, reference compound]",> 50000
19,"COc1ccc2oc(-c3ccccc3OC)cc(=O)c2c1 [Example F-2, 6-methoxy-2-(2-methoxyphenyl)chromen-4-one, reference compound]",> 50000
